From ChEMBL document CHEMBL4732192, “Discovery and optimization of a novel CNS penetrant series of mGlu PAMs based on a 1,4-thiazepane core with in vivo efficacy in a preclinical Parkinsonian model” (Bioorg Med Chem Lett, 2021)
≈ marks a conversion by molar mass, not a printed value.

What was measured:
[1] = molecular target: Metabotropic glutamate receptor 4 (Rattus norvegicus) (UniProt P31423); assay: Positive allosteric modulation of rat mGlu4 receptor expressed in HEK293 cells co- expressing GIRK channel by thallium mobilization assay relative to control; assay type: cell-based
[2] = molecular target: Metabotropic glutamate receptor 4 (Rattus norvegicus, UniProt P31423); assay: Positive allosteric modulation of rat mGlu4 receptor expressed in HEK293 cells co- expressing GIRK channel by thallium mobilization assay; assay type: cell-based
Rattus norvegicus [3] = assay: Reversal of haloperidol-induced catalepsy in ip dosed Sprague-Dawley rat assessed as latency time for withdrawl measured after 15 mins (reference value: 49.8 sec); assay type: functional; settings: 0.25 h
Rattus norvegicus [4] = assay: Reversal of haloperidol-induced catalepsy in ip dosed Sprague-Dawley rat assessed as reduction in catalepsy measured after 15 mins relative to untreated control; assay type: functional; settings: 0.25 h
[5] = Ratio of drug level in rat brain to plasma assessed as unbound permeability coefficient at 0.2 mg/kg, iv; assay type: ADME, organism-based; settings: read-out: K(p,uu,brain)
[6] = Protein binding in rat plasma assessed as unbound fraction; assay type: ADME, cell-free
[7] = Ratio of drug level in rat brain to plasma assessed as permeability coefficient at 0.2 mg/kg, iv; assay type: ADME, organism-based
[8] = Protein binding in rat brain assessed as unbound fraction; assay type: ADME, tissue-based
[9] = Protein binding in human plasma assessed as unbound fraction; assay type: ADME, cell-free
[10] = Kinetic solubility of compound; assay type: physicochemical; settings: read-out: Kinetic_solubility
Rattus norvegicus [11] = assay: Reversal of haloperidol-induced catalepsy in Sprague-Dawley rat assessed as latency time for withdrawl at 3 mg/kg, ip and measured after 15 mins (reference value: 49.8 sec); assay type: functional; settings: 0.25 h
Rattus norvegicus [12] = assay: Reversal of haloperidol-induced catalepsy in Sprague-Dawley rat assessed as reduction in catalepsy at 3 mg/kg, ip and measured after 15 mins relative to untreated control; assay type: functional; settings: 0.25 h
Rattus norvegicus [13] = assay: Reversal of haloperidol-induced catalepsy in Sprague-Dawley rat assessed as reduction in catalepsy at 10 mg/kg, ip and measured after 15 mins relative to untreated control; assay type: functional; settings: 0.25 h
[14] = molecular target: Metabotropic glutamate receptor 5 (Homo sapiens, UniProt P41594); assay: Binding affinity to mGlu5 (unknown origin)
[15] = molecular target: Metabotropic glutamate receptor 1 (Rattus norvegicus, UniProt P23385); assay: Displacement of [3H]quisqualate from mGluR1 from rat brain incubated for 60 mins by radiometric scintillation counting analysis; assay type: tissue-based
[16] = molecular target: Metabotropic glutamate receptor 2 (Homo sapiens, UniProt Q14416); assay: Displacement of [3H]LY341495 from full length human recombinant mGluR2 expressed in Chem-1 cells incubated for 60 mins by radiometric scintillation counting analysis; assay type: cell-based
Rattus norvegicus [17] = assay: Reversal of haloperidol-induced catalepsy in Sprague-Dawley rat assessed as latency time for withdrawl at 10 mg/kg, ip and measured after 15 mins (reference value: 49.8 sec); assay type: functional; settings: 0.25 h
[18] = molecular target: Metabotropic glutamate receptor 3 (Homo sapiens, UniProt Q14832); assay: Binding affinity to mGlu3 (unknown origin)
Rattus norvegicus [19] = assay: Reversal of haloperidol-induced catalepsy in Sprague-Dawley rat assessed as reduction in catalepsy at 30 mg/kg, ip and measured after 15 mins relative to untreated control; assay type: functional; settings: 0.25 h
Rattus norvegicus [20] = assay: Reversal of haloperidol-induced catalepsy in Sprague-Dawley rat assessed as latency time for withdrawl at 30 mg/kg, ip and measured after 15 mins (reference value: 49.8 sec); assay type: functional; settings: 0.25 h
Rattus norvegicus [21] = assay: Reversal of haloperidol-induced catalepsy in Sprague-Dawley rat administered intraperitoneally and measured after 15 mins; assay type: functional, organism-based; settings: dose 3-30 mg/kg
[22] = molecular target: Metabotropic glutamate receptor 7 (Homo sapiens, UniProt Q14831); assay: Binding affinity to mGlu7 (unknown origin)
[23] = filed as positive allosteric modulator

Sequence of Metabotropic glutamate receptor 4 (Rattus norvegicus) (P31423 whole entry): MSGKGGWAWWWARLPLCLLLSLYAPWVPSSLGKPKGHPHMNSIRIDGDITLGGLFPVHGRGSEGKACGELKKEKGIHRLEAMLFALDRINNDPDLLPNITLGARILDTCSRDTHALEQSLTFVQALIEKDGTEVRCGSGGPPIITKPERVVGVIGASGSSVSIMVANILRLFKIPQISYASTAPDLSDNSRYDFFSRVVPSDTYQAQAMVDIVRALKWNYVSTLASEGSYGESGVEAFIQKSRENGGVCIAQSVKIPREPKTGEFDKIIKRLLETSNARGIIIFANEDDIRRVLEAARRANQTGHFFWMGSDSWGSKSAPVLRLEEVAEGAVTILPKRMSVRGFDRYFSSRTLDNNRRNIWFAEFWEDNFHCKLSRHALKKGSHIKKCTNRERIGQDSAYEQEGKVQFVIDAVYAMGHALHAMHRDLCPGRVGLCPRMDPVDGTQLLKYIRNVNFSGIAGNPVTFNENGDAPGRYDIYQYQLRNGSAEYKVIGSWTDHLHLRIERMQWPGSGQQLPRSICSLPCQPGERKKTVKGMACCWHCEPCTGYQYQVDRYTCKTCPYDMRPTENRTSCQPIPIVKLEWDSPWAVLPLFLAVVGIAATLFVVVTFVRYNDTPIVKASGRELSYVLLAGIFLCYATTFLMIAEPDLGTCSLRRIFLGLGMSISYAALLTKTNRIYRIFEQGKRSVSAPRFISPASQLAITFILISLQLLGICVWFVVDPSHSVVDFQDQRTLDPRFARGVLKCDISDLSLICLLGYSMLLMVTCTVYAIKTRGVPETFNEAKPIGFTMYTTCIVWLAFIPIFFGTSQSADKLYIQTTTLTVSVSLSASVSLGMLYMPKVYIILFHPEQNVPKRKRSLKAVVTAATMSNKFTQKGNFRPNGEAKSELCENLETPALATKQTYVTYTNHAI
Sequence of Metabotropic glutamate receptor 4 (P31423 whole entry): as above
Sequence of Metabotropic glutamate receptor 3 (Q14832 whole entry): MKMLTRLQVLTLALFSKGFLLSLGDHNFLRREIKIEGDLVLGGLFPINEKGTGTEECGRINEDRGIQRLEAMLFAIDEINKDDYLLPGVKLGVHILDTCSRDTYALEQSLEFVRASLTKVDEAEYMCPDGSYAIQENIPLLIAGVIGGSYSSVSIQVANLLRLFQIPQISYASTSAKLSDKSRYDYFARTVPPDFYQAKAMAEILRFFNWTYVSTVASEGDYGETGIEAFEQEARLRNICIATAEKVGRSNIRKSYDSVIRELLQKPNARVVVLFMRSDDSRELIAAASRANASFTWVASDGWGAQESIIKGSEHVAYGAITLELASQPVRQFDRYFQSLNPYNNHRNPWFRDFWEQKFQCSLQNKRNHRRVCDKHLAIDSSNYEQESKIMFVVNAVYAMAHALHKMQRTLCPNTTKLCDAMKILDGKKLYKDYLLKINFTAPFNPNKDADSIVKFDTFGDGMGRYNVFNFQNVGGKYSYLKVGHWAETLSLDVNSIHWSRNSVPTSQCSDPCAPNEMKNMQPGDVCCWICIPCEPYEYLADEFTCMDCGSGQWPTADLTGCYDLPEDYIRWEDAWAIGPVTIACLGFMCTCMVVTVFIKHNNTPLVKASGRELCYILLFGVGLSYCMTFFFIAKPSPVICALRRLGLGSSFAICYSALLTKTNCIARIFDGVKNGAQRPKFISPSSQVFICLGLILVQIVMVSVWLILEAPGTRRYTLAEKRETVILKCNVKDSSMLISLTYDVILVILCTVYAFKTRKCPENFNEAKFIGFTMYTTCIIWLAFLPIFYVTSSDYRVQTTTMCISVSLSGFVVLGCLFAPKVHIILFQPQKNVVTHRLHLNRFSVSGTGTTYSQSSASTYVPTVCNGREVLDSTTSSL
Sequence of Metabotropic glutamate receptor 5 (P41594 whole entry): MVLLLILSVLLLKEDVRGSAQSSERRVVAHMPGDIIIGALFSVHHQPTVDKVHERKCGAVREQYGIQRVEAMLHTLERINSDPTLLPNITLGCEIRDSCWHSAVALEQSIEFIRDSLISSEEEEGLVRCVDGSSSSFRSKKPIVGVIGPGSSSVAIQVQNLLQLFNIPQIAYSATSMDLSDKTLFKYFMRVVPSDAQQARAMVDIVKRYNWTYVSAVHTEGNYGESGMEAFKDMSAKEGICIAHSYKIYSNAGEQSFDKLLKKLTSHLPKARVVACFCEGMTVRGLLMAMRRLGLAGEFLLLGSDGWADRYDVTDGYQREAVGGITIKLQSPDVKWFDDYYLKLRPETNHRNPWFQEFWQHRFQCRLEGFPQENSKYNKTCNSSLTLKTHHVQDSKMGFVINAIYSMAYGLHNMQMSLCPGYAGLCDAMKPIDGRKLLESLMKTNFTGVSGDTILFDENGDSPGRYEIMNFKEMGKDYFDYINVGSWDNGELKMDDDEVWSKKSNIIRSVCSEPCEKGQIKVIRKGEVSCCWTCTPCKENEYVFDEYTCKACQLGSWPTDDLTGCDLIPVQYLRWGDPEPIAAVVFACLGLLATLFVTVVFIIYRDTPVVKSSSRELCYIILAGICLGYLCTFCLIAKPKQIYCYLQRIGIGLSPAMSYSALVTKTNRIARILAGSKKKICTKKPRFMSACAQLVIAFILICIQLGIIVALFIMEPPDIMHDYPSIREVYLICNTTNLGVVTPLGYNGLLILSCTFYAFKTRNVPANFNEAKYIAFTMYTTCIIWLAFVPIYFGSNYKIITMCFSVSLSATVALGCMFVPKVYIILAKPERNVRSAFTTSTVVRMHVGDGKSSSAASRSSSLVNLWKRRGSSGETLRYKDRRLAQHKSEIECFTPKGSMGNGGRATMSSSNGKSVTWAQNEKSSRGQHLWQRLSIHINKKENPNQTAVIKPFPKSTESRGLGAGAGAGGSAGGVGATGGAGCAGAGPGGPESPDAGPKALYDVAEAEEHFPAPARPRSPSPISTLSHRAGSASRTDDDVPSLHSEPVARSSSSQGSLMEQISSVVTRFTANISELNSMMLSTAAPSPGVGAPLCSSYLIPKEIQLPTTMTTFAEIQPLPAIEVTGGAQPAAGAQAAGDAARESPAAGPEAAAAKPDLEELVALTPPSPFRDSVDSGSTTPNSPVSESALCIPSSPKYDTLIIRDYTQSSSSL
Sequence of Metabotropic glutamate receptor 7 (Q14831 whole entry): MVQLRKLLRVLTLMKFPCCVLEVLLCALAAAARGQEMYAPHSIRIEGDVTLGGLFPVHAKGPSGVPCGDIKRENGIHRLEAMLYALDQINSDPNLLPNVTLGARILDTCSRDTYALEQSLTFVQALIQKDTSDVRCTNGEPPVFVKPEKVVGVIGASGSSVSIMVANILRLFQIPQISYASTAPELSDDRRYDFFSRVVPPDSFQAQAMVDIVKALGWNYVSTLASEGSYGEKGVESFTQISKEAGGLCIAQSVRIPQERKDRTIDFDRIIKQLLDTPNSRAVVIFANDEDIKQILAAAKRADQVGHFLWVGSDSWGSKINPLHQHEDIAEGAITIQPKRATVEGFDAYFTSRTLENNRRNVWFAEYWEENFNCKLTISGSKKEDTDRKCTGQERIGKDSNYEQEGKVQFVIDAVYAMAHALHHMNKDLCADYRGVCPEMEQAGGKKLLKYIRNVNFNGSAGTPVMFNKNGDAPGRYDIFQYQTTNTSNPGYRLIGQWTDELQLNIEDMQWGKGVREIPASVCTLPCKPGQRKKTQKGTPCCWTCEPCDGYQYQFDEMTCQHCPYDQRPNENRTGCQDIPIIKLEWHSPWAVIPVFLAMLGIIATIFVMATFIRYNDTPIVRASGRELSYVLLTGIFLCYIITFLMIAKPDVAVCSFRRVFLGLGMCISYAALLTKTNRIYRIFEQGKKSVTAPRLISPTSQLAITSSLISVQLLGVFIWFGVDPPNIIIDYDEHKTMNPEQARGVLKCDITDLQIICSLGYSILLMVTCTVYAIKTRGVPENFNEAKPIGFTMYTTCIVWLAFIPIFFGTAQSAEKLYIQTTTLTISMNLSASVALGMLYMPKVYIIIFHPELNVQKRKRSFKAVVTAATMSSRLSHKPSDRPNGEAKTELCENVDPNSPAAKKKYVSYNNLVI
Sequence of Metabotropic glutamate receptor 2 (Q14416 whole entry): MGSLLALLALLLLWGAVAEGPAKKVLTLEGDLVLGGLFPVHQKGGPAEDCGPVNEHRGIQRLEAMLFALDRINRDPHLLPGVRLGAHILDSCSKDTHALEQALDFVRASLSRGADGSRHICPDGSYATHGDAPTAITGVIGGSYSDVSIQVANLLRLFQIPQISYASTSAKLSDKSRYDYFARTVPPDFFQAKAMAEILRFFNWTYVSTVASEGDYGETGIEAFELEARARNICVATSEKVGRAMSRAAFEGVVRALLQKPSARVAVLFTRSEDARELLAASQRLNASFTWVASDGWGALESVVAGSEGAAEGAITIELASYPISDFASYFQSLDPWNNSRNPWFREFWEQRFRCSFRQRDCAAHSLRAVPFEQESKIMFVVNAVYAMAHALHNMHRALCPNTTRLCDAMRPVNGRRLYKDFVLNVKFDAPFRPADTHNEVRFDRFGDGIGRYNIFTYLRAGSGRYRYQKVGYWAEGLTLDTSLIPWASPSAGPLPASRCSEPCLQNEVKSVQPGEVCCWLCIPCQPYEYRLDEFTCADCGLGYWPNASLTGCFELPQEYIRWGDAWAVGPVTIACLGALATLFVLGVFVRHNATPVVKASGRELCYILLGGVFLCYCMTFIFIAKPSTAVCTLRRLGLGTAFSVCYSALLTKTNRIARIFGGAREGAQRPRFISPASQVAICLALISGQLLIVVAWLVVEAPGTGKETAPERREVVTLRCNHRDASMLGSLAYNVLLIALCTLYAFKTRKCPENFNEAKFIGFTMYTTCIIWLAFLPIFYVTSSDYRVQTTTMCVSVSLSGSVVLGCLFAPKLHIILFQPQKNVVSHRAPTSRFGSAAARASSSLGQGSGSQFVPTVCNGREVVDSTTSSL

| Compound | %max [1, 23] [%] | EC50 [2] [µM] | other results |
| --- | --- | --- | --- |
| O=C1CCSC[C@@H](C(=O)Nc2cc(F)cc(Br)c2)N1 | 101 | 0.351 | – |
| O=C1CCSC[C@@H](C(=O)Nc2cc(F)cc(Cl)c2)N1 | 112 | 0.278 | – |
| O=C1CCSC[C@@H](C(=O)Nc2cc(Cl)cc(Cl)c2)N1 | 88 | 0.273 | – |
| O=C1CCSC[C@H](C(=O)Nc2cccc(Br)c2)N1 | – | > 30 | – |
| O=C1CCSC[C@@H](C(=O)Nc2cc(C(F)(F)F)cc(C(F)(F)F)c2)N1 | 102 | 0.95 | – |
| O=C1CCSC[C@@H](C(=O)Nc2cc(Br)cc(I)c2)N1 | 101 | 0.115 | – |
| O=C1CCSC[C@H](C(=O)Nc2cc(Br)cc(Br)c2)N1 | 104 | 0.076 | – |
| Fc1ccc(Nc2n[nH]c3cccnc23)cc1Cl | – | – | Time (Rattus norvegicus [3]): 17.9 s; inhibition (INH) (Rattus norvegicus [4]): 64% |
| O=C1CCSC[C@@H](C(=O)Nc2cc(Br)cc(Br)c2)N1 | 97 | 0.035 | Kp uu [5]: 0.1; fraction unbound [6]: 0.011; Kp [7]: 0.19; fraction unbound [8]: 0.006; fraction unbound [9]: 0.007 |
| O=C1CCSC[C@@H](C(=O)Nc2cc(F)cc(I)c2)N1 | 102 | 0.558 | – |
| O=C1CCSC[C@@H](C(=O)Nc2cccc(Br)c2)N1 | 98 | 6.2 | – |
| O=C1CCSC[C@@H](C(=O)Nc2cccc(Cl)c2)N1 | 120 | 0.148 | fraction unbound [6]: 0.02; fraction unbound [8]: 0.01; fraction unbound [9]: 0.03 |
| O=C(NC1CC(F)(F)C1)c1nsc2cc(Nc3n[nH]c4cccnc34)ccc12 | – | – | solubility kinetic [10]: 0.9 µM (≈ 0.36 µg/mL) |
| O=C1CCSC[C@@H](C(=O)Nc2cc(Cl)cc(Br)c2)N1 | 108 | 0.033 | Time (Rattus norvegicus [11]): 36.6 s; inhibition in vivo at 3 mg/kg (Rattus norvegicus [12]): 26.5%; Kp uu [5]: 0.7; inhibition in vivo at 10 mg/kg (Rattus norvegicus [13]): 42.6%; IC50 [14]: > 10 µM; fraction unbound [6]: 0.018; IC50 [15]: > 10 µM; Kp [7]: 0.45; fraction unbound [8]: 0.028; IC50 [16]: > 10 µM; fraction unbound [9]: 0.011; Time (Rattus norvegicus [17]): 28.6 s; solubility kinetic [10]: 6.2 µM (≈ 2.25 µg/mL); IC50 [18]: > 10 µM; inhibition in vivo at 30 mg/kg (Rattus norvegicus [19]): 55.4%; Time (Rattus norvegicus [20]): 22.2 s; Activity (Rattus norvegicus [21]): Dose-dependent effect; IC50 [22]: > 10 µM |
| O=C1CCSC[C@H](C(=O)Nc2cc(Cl)cc(Br)c2)N1 | 98 | 0.064 | – |
| Cc1cc(C)cc(NC(=O)[C@@H]2CSCCC(=O)N2)c1 | – | > 10 | %max [1]: < 30% |
| O=C1CCSC[C@@H](C(=O)Nc2cc(F)cc(F)c2)N1 | 102 | 8.9 | – |
| Cc1cc(Cl)cc(NC(=O)[C@@H]2CSCCC(=O)N2)c1 | 87 | 1.09 | – |
